Laboratory results taken from patent publication US20050148786A1, “Diimmonium compound and use thereof” (Nippon Kayaku Kabushiki Kaisha, priority 2003, published 2005).

Key:
[1] = maximum absorption wavelength (λmax) in dichloromethane; assay type: physicochemical
From the text: λmax: 1,102 nm (in dichloromethane);

[2] = Comparative test of molar absorption coefficient measurement; assay type: physicochemical; details: in dichloromethane; in M-1·cm-1
From the text: The compounds obtained in the above-mentioned Examples were subjected to the measurement of molar absorption coefficient (ε) in dichloromethane.

[3] = thermal decomposition point (weight decrease starting point) by TG-DTA; assay type: physicochemical; details: measured by TG-DTA
Procedure: the melting point: around 170° C.; and the thermal decomposition point (the weight decrease starting point): around 280° C. (measured by TG-DTA)

[4] = Stability test of moisture-and-heat resistance of near-IR absorption filter; assay type: physicochemical; details: for b* value, difference: 14-day after minus initial, 60° C. and 95% RH; for b* value, 14-day after / b* value, initial period: acrylic resin filter; for b* value, 14-day after: 14 days at 60° C. and 95% RH; for b* value, initial period: before test
Procedure: (§1) 1.2 part of each compound obtained in each Example was dissolved in 18.8 part of MEK. 80 part of a resin solution obtained by dissolving 25 part of an acrylic resin (Dianal BR-80, manufactured by Mitsubishi Rayon Co., Ltd.) in 75 part of MEK was mixed with the obtained solution to obtain a solution for coating. The solution was applied to form a film with a thickness of 2 to 4 μm on a polyester film and dried at 80° C. to obtain a near-IR absorption filter of the invention.
The obtained near-IR absorption filter was subjected to a stability test of moisture-and-heat resistance for 14 days in a constant temperature and constant humidity apparatus under 60° C. and 95% RH conditions. The filter was subjected to color measurement by a spectrophotometer before and after the test to calculate L*, a*, and b* values. If the + value of b* value is high, it means that the hue is yellowish and if b* value is close to 0, it means that the yellowish degree is low and filter is desirable and therefore, the hue evaluation and stability evaluation were done based on the b* value and its change.

[5] = Stability test of heat resistance of near-IR absorption filter; assay type: physicochemical; details: for b* value, initial period / b* value, 14-day after: acrylic resin filter; for b* value, initial period: before test; for b* value, 14-day after / b* value, difference: oven at 80° C.; for b* value, 14-day after: head prints 14-day, text 21 days; for b* value, difference: after minus initial
Procedure: as §1
[…] After that, the filters were subjected to color measurement by a spectrophotometer to calculate L*, a*, and b* values and their stability was evaluated based on the change in b* values. If the b* is low, that is, the absorption in visible ray region is low, the near-IR absorption filter is preferable.

[6] = Comparative test of solubility measurement; details: room temperature; for solubility in MEK: methyl ethyl ketone
Procedure: The solubility was measured for the compounds obtained in the above-mentioned Examples at a room temperature in methyl ethyl ketone (MEK) and toluene.

[7] = Stability test of light fastness of cyanine dye film; assay type: physicochemical
Procedure: 0.3 part of the cyanine dye (OM-57) was dissolved in 15 part of tetrafluoropropanol and 0.04 part of the Compound No. 3 was added to the obtained solution to produce a coating solution. The obtained coating solution was applied to a polycarbonate substrate by spin coating to form a dye film. The […] the conditions: light source output: 0.36 W/m^2; bath temperature: 24° C.; black panel temperature: 40° C.; humidity: 30% RH: by a Weatherometer (Ci4000, manufactured by Atlas Co.). After that, the remaining ratio of the cyanine dye was measured by a spectrophotometer.
For comparison, a dye film was formed and evaluated in the same manner, except that the compound described in Patent Document No. 3; hexafluoroantimonate of tetrakis[p-di(n-butyl)aminophenyl]phenylenediimmonium (Comparative Example 7: Compound No. 153); was used in place of the Compound No. 1.

[8] = Stability test of light fastness of diimmonium compound thin film; assay type: physicochemical
Procedure: 0.1 part of the Compound No. 3 was added to 10 part of tetrafluoropropanol to produce a coating solution. The obtained coating solution was applied to a polycarbonate substrate by spin coating to form a thin film of the diimmonium compound. The […] source output: 0.36 W/m^2; bath temperature: 24° C.; black panel temperature: 40° C.; humidity: 30% RH: by a Weatherometer (Ci4000, manufactured by Atlas Co.). After that, the remaining ratio of the diimmonium compound was measured by a spectrophotometer.
For comparison, a dye film was formed and evaluated in the same manner, except that the compound described in Patent Document No. 3; hexafluoroantimonate of tetrakis[p-di(n-butyl)aminophenyl]phenylenediimmonium (Comparative Example 8: Compound No. 153); was used in place of the Compound No. 3.

[9] = Weatherometer 0.36 W/m^2, 24° C., 30% RH, 100-hour
[10] = Weatherometer 0.36 W/m^2, 24° C., 30% RH, 150-hour

SMILES	molar absorption coefficient (ε) [2]	b* value, difference [4]	b* value, 14-day after [4]	b* value, initial period [4]	b* value, initial period [5]	b* value, 14-day after [5]	b* value, difference [5]	λmax [1]	thermal decomposition point (the weight decrease starting point) [3]	further results
N#CCCCCN(CCCCC#N)c1ccc([N+](=C2C=CC(=[N+](c3ccc(N(CCCCC#N)CCCCC#N)cc3)c3ccc(N(CCCCC#N)CCCCC#N)cc3)C=C2)c2ccc(N(CCCCC#N)CCCCC#N)cc2)cc1.O=S(=O)([N-]S(=O)(=O)C(F)(F)F)C(F)(F)F.O=S(=O)([N-]S(=O)(=O)C(F)(F)F)C(F)(F)F [Compound No. 9]	109,000	1.9	4.3	2.4				1,086 nm	around 277 °C	
CCCCN(CCCC#N)c1ccc([N+](=C2C=CC(=[N+](c3ccc(N(CCCC)CCCC#N)cc3)c3ccc(N(CCCC)CCCC#N)cc3)C=C2)c2ccc(N(CCCC)CCCC#N)cc2)cc1.O=S(=O)([N-]S(=O)(=O)C(F)(F)F)C(F)(F)F.O=S(=O)([N-]S(=O)(=O)C(F)(F)F)C(F)(F)F [Compound No. 35]								1,090 nm	around 256 °C	
N#CCCCN(CCCC#N)c1ccc([N+](=C2C=CC(=[N+](c3ccc(N(CCCC#N)CCCC#N)cc3)c3ccc(N(CCCC#N)CCCC#N)cc3)C=C2)c2ccc(N(CCCC#N)CCCC#N)cc2)cc1.[F][Sb-]([F])([F])([F])([F])[F].[F][Sb-]([F])([F])([F])([F])[F] [Compound No. 154, hexafluoroantimonate of N,N,N′,N′-tetrakis[p-di(3-cyanopropyl)aminophenyl]phenylene diimmonium, reference compound]										solubility in MEK [6]: insoluble; solubility in toluene [6]: insoluble
CCN(CC)c1ccc([N+](=C2C=CC(=[N+](c3ccc(N(CC)CC)cc3)c3ccc(N(CC)CC)cc3)C=C2)c2ccc(N(CC)CC)cc2)cc1.O=S(=O)([N-]S(=O)(=O)C(F)(F)F)C(F)(F)F.O=S(=O)([N-]S(=O)(=O)C(F)(F)F)C(F)(F)F [Compound No. 12]	96,000							1,084 nm	around 278 °C	
CC(C)CCN(CCC(C)C)c1ccc([N+](=C2C=CC(=[N+](c3ccc(N(CCC(C)C)CCC(C)C)cc3)c3ccc(N(CCC(C)C)CCC(C)C)cc3)C=C2)c2ccc(N(CCC(C)C)CCC(C)C)cc2)cc1.O=S(=O)([N-]S(=O)(=O)C(F)(F)F)C(F)(F)F.O=S(=O)([N-]S(=O)(=O)C(F)(F)F)C(F)(F)F [Compound No. 4]	110,000	2.1	4.3	2.2	2.4	3.8	1.6	1,102 nm	around 280 °C	solubility in MEK [6]: 10%; solubility in toluene [6]: 0.1%
CCCCN(CCCC)c1ccc([N+](=C2C=CC(=[N+](c3ccc(N(CCCC)CCCC)cc3)c3ccc(N(CCCC)CCCC)cc3)C=C2)c2ccc(N(CCCC)CCCC)cc2)cc1.[F][Sb-]([F])([F])([F])([F])[F].[F][Sb-]([F])([F])([F])([F])[F] [Compound No. 153, hexafluoroantimonate of N,N,N′,N′-tetrakis[p-di(n-butyl)aminophenyl]phenylenediimmonium, reference compound]					2.5	4.4	1.9			remaining ratio of cyanine dye (%), initial period ([7]; OM-57 dye film with compound added, before irradiation): 100%; remaining ratio of cyanine dye (%), 100-hour after [7, 9]: 27%; remaining ratio of cyanine dye (%), 150-hour after [7, 10]: 0%; remaining ratio of diimmonium compound (%), 100-hour after [8, 9]: 81%; remaining ratio of diimmonium compound (%), 150-hour after [8, 10]: 76%; remaining ratio of diimmonium compound (%), initial period ([8]; thin film on polycarbonate, before irradiation): 100%; solubility in MEK [6]: 4.5%; solubility in toluene [6]: insoluble

Now from value to molecule, other results behind:

molar absorption coefficient (ε) [2]	b* value, difference [4]	b* value, 14-day after [4]	b* value, initial period [4]	b* value, initial period [5]	b* value, 14-day after [5]	b* value, difference [5]	SMILES	λmax [1]	thermal decomposition point (the weight decrease starting point) [3]	further results
108,000	1.8	5.3	3.5	3.5	5.3	1.8	CCCCN(CCCC)c1ccc([N+](=C2C=CC(=[N+](c3ccc(N(CCCC)CCCC)cc3)c3ccc(N(CCCC)CCCC)cc3)C=C2)c2ccc(N(CCCC)CCCC)cc2)cc1 [Compound No. 1]	1,102 nm	around 280 °C	
24,500							CCCCN(CCCC)c1ccc([N+](=C2C=CC(=[N+](c3ccc(N(CCCC)CCCC)cc3)c3ccc(N(CCCC)CCCC)cc3)C=C2)c2ccc(N(CCCC)CCCC)cc2)cc1.O=S(=O)([O-])c1ccc2c(S(=O)(=O)[O-])cccc2c1O [Compound No. 152, 1-hydroxy-2,5-naphthalenedisulfonic acid salt of N,N,N′,N′-tetrakis[p-di(n-butyl)aminophenyl]phenylenediimmonium, reference compound]			
82,000							CCCCN(CCCC)c1ccc([N+](=C2C=CC(=[N+](c3ccc(N(CCCC)CCCC)cc3)c3ccc(N(CCCC)CCCC)cc3)C=C2)c2ccc(N(CCCC)CCCC)cc2)cc1.O=S(=O)([O-])c1cccc2c(S(=O)(=O)[O-])cccc12 [Compound No. 151, 1,5-naphthalenedisulfonic acid salt of N,N,N′,N′-tetrakis[p-di(n-butyl)aminophenyl]phenylenediimmonium, reference compound]			
	6.1	9.0	2.9				CCCCN(CCCC)c1ccc([N+](=C2C=CC(=[N+](c3ccc(N(CCCC)CCCC)cc3)c3ccc(N(CCCC)CCCC)cc3)C=C2)c2ccc(N(CCCC)CCCC)cc2)cc1.F[P-](F)(F)(F)(F)F.F[P-](F)(F)(F)(F)F [Compound No. 155, hexafluorophosphate of N,N,N′,N′-tetrakis[p-di(n-butyl)aminophenyl]-p-phenylenediimmonium, reference compound]			
	10.8	14.3	3.5				CCCCN(CCCC)c1ccc([N+](=C2C=CC(=[N+](c3ccc(N(CCCC)CCCC)cc3)c3ccc(N(CCCC)CCCC)cc3)C=C2)c2ccc(N(CCCC)CCCC)cc2)cc1.F[B-](F)(F)F.F[B-](F)(F)F [Compound No. 156, borofluoride salt of N,N,N′,N′-tetrakis[p-di(n-butyl)aminophenyl]phenylene diimmonium, reference compound]			
109,000	1.9	4.1	2.2	2.2	3.7	1.5	CC(C)CN(CC(C)C)c1ccc([N+](=C2C=CC(=[N+](c3ccc(N(CC(C)C)CC(C)C)cc3)c3ccc(N(CC(C)C)CC(C)C)cc3)C=C2)c2ccc(N(CC(C)C)CC(C)C)cc2)cc1 [Compound No. 2]	1,104 nm	around 282 °C	
